# From US11286236B2, “Compound, agent and composition for the suppression of cancer growth” (Vector Vitale IP LLC, priority 2018, dated 2022)
# Test system: Ehrlich ascites carcinoma
# Assay: In vivo antitumor activity against Ehrlich ascites carcinoma
# Set-up: species or system mouse
# Conditions: for Number of animals in the group with tumor / Number of animals in the group without tumor: 14 mice per group
# Protocol: Outbred mice were administered Ehrlich ascites carcinoma cells (EAC) intraperitoneally (IP) at a dose of 2.5×10^5 cells in 0.25 ml of normal saline solution. The compounds under study, 1)^85RbeE2, was dissolved in deuterium-depleted water and 2) Cisplatin (Teva, the Netherlands), was dissolved in normal saline solution. The drugs were administered starting from the first day after mice were inoculated with tumor cells, using a microinjection syringe, at the following doses: 1)^85Rbe-E2 at a dose of 750 μg/mouse (weighing 20 g) in a volume of 0.3 ml as 3 IP injections (1 injection—250 μg/mouse) on the 1st, 4th and 7th day of the experiment; 2) Cisplatin at a dose of 4.5 mg/kg or 1.5 mg/kg as 3 IP injections on the 2nd, 5th and 8th day of the experiment. The dynamics of tumor growth in the experimental animals was observed (based on the volume of ascites in the peritoneal cavity) after the tumor cell inoculation and for 31 days of the experiment. On the 15th and 22nd day after IP administration of tumor cells, all the fluid accumulated in each animal's abdomen was extracted and the total number of live/dead cells in each mouse was determined. In addition, some mice were used to assess a survival rate of animals in the experiment.
# Laboratory animals. 84 outbred female 10 to 12-week old mice weighing 22-26 g were used in the experimental study. The animals were obtained from the animal vivarium at R.E. Kavetsky IEPOR NASU. […] The animals were maintained in plastic cages, under natural light-dark cycles, fed standard food and allowed free access to food and tap water.
# Tumor model. Ascites strain of Ehrlich ascites carcinoma maintained on outbred mice obtained from the cell and tissue line bank at R.E. Kavetsky IEPOR NASU was used in the experiment. To prepare the strain for injection, tumor cells derived from ascitic fluid were placed in normal saline solution and cellularity of the suspension was assessed in a hemocytometer and adjusted to a concentration of 1·10^6 cells/ml with saline solution. The tumor cells were inoculated by injecting 250 mcl of cell suspension from the tumor (0.25×10^6 cells/mouse) into the peritoneal cavity of laboratory animals.
# The drugs were administered IP every other day, using a microinjection syringe, at doses specified above as a series of 3 injections of each compound according to the following scheme: ^85Rbe-E2 at a dose of 250 μg/mouse weighing 20 g+CP at a dose of […] 24 hours later (for groups (EAC+CP(4.5)) and (EAC+^85Rbe-E2+CP(4.5)) or […] (for groups (EAC+CP(1.5)) and (EAC+^85Rbe-E2+CP(1.5)) in a volume of 0.25 ml of saline solution (6 injections in total during 8 days).
# The tumor growth dynamics in the laboratory animals was observed by daily control of the volume of ascitic fluid in the abdominal cavity of mice starting from the tumor inoculation and for 31 days of the experiment. The dynamics of ascites growth both in control and experimental groups was assessed visually using a 10-point scale, where 0 points were the absence of tumor growth and 10 points were the maximum increase in the size of the abdomen of the mouse with ascites (one point was 0.6 cm of the mean diameter of the mouse abdomen filled with the fluid).
# Furthermore, on the 15th and 22nd day after intraperitoneal injection of tumor cells, all ascitic fluid was removed from the abdomen in 2 or 3 animals from each group by washing their peritoneal cavity with saline solution, and live/dead EAC cells were counted in each mouse using the traditional vital dye trypan blue (HyClon, USA) and a hemocytometer.
# X=((a)/80)×10^6, where X is the number of cells in 1 ml and a is the number of cells counted in 5 large diagonal squares of the hemocytometer.
# 7 or 8 mice from each group were used to assess their survival in the experiment. The total lifespan observation time was 31 days from the moment of inoculation of tumor cells.
# Statistical data processing. […]
# [1] = CP 1.5 mg/kg IP total (combination: + 85Rbe-E2 750 μg/mouse)
# [2] = CP 4.5 mg/kg IP total (combination: + 85Rbe-E2 750 μg/mouse)
# [3] = Day 15, CP 1.5 mg/kg IP total (combination: + 85Rbe-E2 750 μg/mouse)
# [4] = Day 15, CP 4.5 mg/kg IP total (combination: + 85Rbe-E2 750 μg/mouse)
# [5] = Day 22, CP 1.5 mg/kg IP total (combination: + 85Rbe-E2 750 μg/mouse)
# [6] = Day 22, CP 4.5 mg/kg IP total (combination: + 85Rbe-E2 750 μg/mouse)
structure (smiles),measurement,setting,value
N.N.[Cl][Pt][Cl] [cisplatin],"Animals without tumor, %",[1],0%
same,Number of animals in the group with tumor,[1],14
same,Number of animals in the group without tumor,[1],0
same,"Animals without tumor, %",[2],0%
same,Number of animals in the group with tumor,[2],14
same,Number of animals in the group without tumor,[2],0
same,"Number of dead cells/mouse, %",[3],9.5 ± 2.8%
same,"Number of live cells/mouse, ×10^6 (M ± m)",[3],1188 ± 116 ×10^6
same,Volume of ascites,[3],5.2 ± 1.3 mL
same,"Number of dead cells/mouse, %",[4],<1%
same,"Number of live cells/mouse, ×10^6 (M ± m)",[4],33.5 ± 11 ×10^6
same,Volume of ascites,[4],0.4 ± 0.1 mL
same,"Number of dead cells/mouse, %",[5],11 ± 1%
same,"Number of live cells/mouse, ×10^6 (M ± m)",[5],1154 ± 429 ×10^6
same,Volume of ascites,[5],14.4 ± 8.7 mL
same,"Number of dead cells/mouse, %",[6],<3%
same,"Number of live cells/mouse, ×10^6 (M ± m)",[6],430 ± 250 ×10^6
same,Volume of ascites,[6],2.8 ± 1.3 mL
same,Last day with statistically significant inhibition of EAC growth vs control,cisplatin 1.5 mg/kg (combination: + 85Rbe-E2),9 days
same,Suppression of tumor growth vs control,"cisplatin 1.5 mg/kg mono-regime, only up to the 10th day",32%
same,"Suppression of tumor growth / decrease in tumor size vs control, average","cisplatin 4.5 mg/kg (combination: + 85Rbe-E2 total 750 mg/mouse as printed), throughout the observation period",51.3%
same,"Survival, percent of mice","day 0, CP 1.5 mg/kg IP total (combination: + 85Rbe-E2 750 μg/mouse)",100%
same,"Survival, percent of mice","day 0, CP 4.5 mg/kg IP total (combination: + 85Rbe-E2 750 μg/mouse)",100%
same,"Size of mouse abdomen, points","day 9, CP 1.5 mg/kg IP total (combination: + 85Rbe-E2 750 μg/mouse IP total)",3.8 ± 0.8 points
same,"Size of mouse abdomen, points","day 9, CP 4.5 mg/kg IP total (combination: + 85Rbe-E2 750 μg/mouse IP total)",2.6 ± 0.2 points
same,"Size of mouse abdomen, points","day 13, CP 1.5 mg/kg IP total (combination: + 85Rbe-E2 750 μg/mouse IP total)",5.9 ± 1.1 points
same,"Size of mouse abdomen, points","day 13, CP 4.5 mg/kg IP total (combination: + 85Rbe-E2 750 μg/mouse IP total)",3.2 ± 0.3 points
same,"Size of mouse abdomen, points","day 15, CP 1.5 mg/kg IP total (combination: + 85Rbe-E2 750 μg/mouse IP total)",6.9 ± 0.4 points
same,"Survival, percent of mice","day 15, CP 1.5 mg/kg IP total (combination: + 85Rbe-E2 750 μg/mouse)",100%
same,Number of live cells in ascites as fraction of the control,"day 15, CP 4.5 mg/kg (combination: + 85Rbe-E2), p<0.05",approximately 1/53
same,"Size of mouse abdomen, points","day 15, CP 4.5 mg/kg IP total (combination: + 85Rbe-E2 750 μg/mouse IP total)",3.1 ± 0.4 points
same,"Survival, percent of mice","day 15, CP 4.5 mg/kg IP total (combination: + 85Rbe-E2 750 μg/mouse)",100%
same,"Number of live cells in ascites, times smaller than in the control","day 15, EAC+CP(4.5) group, p<0.05",52 times
same,"Size of mouse abdomen, points","day 17, CP 1.5 mg/kg IP total (combination: + 85Rbe-E2 750 μg/mouse IP total)",7.4 ± 0.6 points
same,"Survival, percent of mice","day 17, CP 1.5 mg/kg IP total (combination: + 85Rbe-E2 750 μg/mouse)",100%
same,"Size of mouse abdomen, points","day 17, CP 4.5 mg/kg IP total (combination: + 85Rbe-E2 750 μg/mouse IP total)",3.4 ± 0.4 points
same,"Survival, percent of mice","day 17, CP 4.5 mg/kg IP total (combination: + 85Rbe-E2 750 μg/mouse)",87.5%
same,"Survival, percent of mice","day 19, CP 1.5 mg/kg IP total (combination: + 85Rbe-E2 750 μg/mouse)",100%
same,"Survival, percent of mice","day 19, CP 4.5 mg/kg IP total (combination: + 85Rbe-E2 750 μg/mouse)",87.5%
same,"Size of mouse abdomen, points","day 20, CP 1.5 mg/kg IP total (combination: + 85Rbe-E2 750 μg/mouse IP total)",8.1 ± 0.6 points
same,"Size of mouse abdomen, points","day 20, CP 4.5 mg/kg IP total (combination: + 85Rbe-E2 750 μg/mouse IP total)",4.8 ± 0.5 points
same,"Size of mouse abdomen, points","day 22, CP 1.5 mg/kg IP total (combination: + 85Rbe-E2 750 μg/mouse IP total)",8.2 ± 0.8 points
same,"Survival, percent of mice","day 22, CP 1.5 mg/kg IP total (combination: + 85Rbe-E2 750 μg/mouse)",100%
same,"Size of mouse abdomen, points","day 22, CP 4.5 mg/kg IP total (combination: + 85Rbe-E2 750 μg/mouse IP total)",4.7 ± 0.7 points
same,"Survival, percent of mice","day 22, CP 4.5 mg/kg IP total (combination: + 85Rbe-E2 750 μg/mouse)",75%
same,"Size of mouse abdomen, points","day 24, CP 1.5 mg/kg IP total (combination: + 85Rbe-E2 750 μg/mouse IP total)",8.6 ± 0.8 points
same,"Survival, percent of mice","day 24, CP 1.5 mg/kg IP total (combination: + 85Rbe-E2 750 μg/mouse)",100%
same,"Size of mouse abdomen, points","day 24, CP 4.5 mg/kg IP total (combination: + 85Rbe-E2 750 μg/mouse IP total)",5.2 ± 0.9 points
same,"Survival, percent of mice","day 24, CP 4.5 mg/kg IP total (combination: + 85Rbe-E2 750 μg/mouse)",75%
same,"Survival, percent of mice","day 25, CP 1.5 mg/kg IP total (combination: + 85Rbe-E2 750 μg/mouse)",100%
same,"Survival, percent of mice","day 25, CP 4.5 mg/kg IP total (combination: + 85Rbe-E2 750 μg/mouse)",75%
same,"Survival, percent of mice","day 26, CP 1.5 mg/kg IP total (combination: + 85Rbe-E2 750 μg/mouse)",100%
same,"Survival, percent of mice","day 26, CP 4.5 mg/kg IP total (combination: + 85Rbe-E2 750 μg/mouse)",75%
same,"Size of mouse abdomen, points","day 27, CP 1.5 mg/kg IP total (combination: + 85Rbe-E2 750 μg/mouse IP total)",8.4 ± 1 points
same,"Survival, percent of mice","day 27, CP 1.5 mg/kg IP total (combination: + 85Rbe-E2 750 μg/mouse)",87.5%
same,"Size of mouse abdomen, points","day 27, CP 4.5 mg/kg IP total (combination: + 85Rbe-E2 750 μg/mouse IP total), listed as CP",5.2±0.9 points
same,"Survival, percent of mice","day 27, CP 4.5 mg/kg IP total (combination: + 85Rbe-E2 750 μg/mouse)",75%
same,"Survival, percent of mice","day 28, CP 1.5 mg/kg IP total (combination: + 85Rbe-E2 750 μg/mouse)",75%
same,"Survival, percent of mice","day 28, CP 4.5 mg/kg IP total (combination: + 85Rbe-E2 750 μg/mouse)",75%
same,"Size of mouse abdomen, points","day 29, CP 1.5 mg/kg IP total (combination: + 85Rbe-E2 750 μg/mouse IP total)",8.4 ± 1 points
same,"Survival, percent of mice","day 29, CP 1.5 mg/kg IP total (combination: + 85Rbe-E2 750 μg/mouse), listed as CP",50%
same,"Size of mouse abdomen, points","day 29, CP 4.5 mg/kg IP total (combination: + 85Rbe-E2 750 μg/mouse IP total)",5.4 ± 0.9 points
same,"Survival, percent of mice","day 29, CP 4.5 mg/kg IP total (combination: + 85Rbe-E2 750 μg/mouse), listed as CP",75%
same,"Size of mouse abdomen, points","day 31, CP 1.5 mg/kg IP total (combination: + 85Rbe-E2 750 μg/mouse IP total)",7.9 ± 1.4 points
same,"Survival, percent of mice","day 31, CP 1.5 mg/kg IP total (combination: + 85Rbe-E2 750 μg/mouse), listed as CP",37.5%
same,"Size of mouse abdomen, points","day 31, CP 4.5 mg/kg IP total (combination: + 85Rbe-E2 750 μg/mouse IP total)",6 ± 1.3 points
same,"Survival, percent of mice","day 31, CP 4.5 mg/kg IP total (combination: + 85Rbe-E2 750 μg/mouse), listed as CP",62.5%
